Reference: the supplement of paper PMC10331698
± gives the standard deviation of the averaged measurements.

How the values were obtained:
Assay in all cases: level (log10 ratio to DMSO vehicle control); higher = higher biomarker level / cell amount than vehicle control
Details in all cases: in DMSO
[1] = compound: O=C(O)C(F)(F)OC(F)(F)C(F)(F)OC(F)(F)C(=O)O [Perfluoro-3,6-dioxaoctane-1,8-dioic acid]
Procedure: (§1)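 BioMAP Diversity Plus panel of 12 human primary cell co-culture systems (3C, 4H, LPS, SAg, BT, BF4T, BE3C, CASM3C, HDF3CGF, KF3CT, MyoF, Mphg). Compounds were added 1 h before stimulation and left for 24 h (MyoF 48 h; BT 72 h for soluble read-outs or 6 d for IgG). Biomarkers were read by ELISA, cytotoxicity by SRB, PBMC viability and proliferation by Alamar Blue. Each well value was divided by the mean of 8 DMSO control wells on the same plate and log10 transformed; duplicate blinded samples were tested at 4 concentrations.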

[2] = compound: C=CC(F)(F)C(F)(F)C(F)(F)C(F)(F)C(F)(F)C(F)(F)C(F)(F)C(F)(F)C=C [1,8-Divinylperfluorooctane]
Procedure: as §1

[3] = compound: FC(F)C(F)(F)COCC1CO1 [((2,2,3,3-Tetrafluoropropoxy)methyl)oxirane]
Procedure: as §1

[4] = compound: COC(=O)CCC(F)(F)C(F)(F)C(F)(F)C(F)(F)F [Methyl 2H,2H,3H,3H-perfluoroheptanoate]
Procedure: as §1

Perfluoropropanoic acid = compound: O=C(O)C(F)(F)C(F)(F)F [Perfluoropropanoic acid]
Procedure: as §1

[5] = compound: OCC(F)(F)OC(F)(F)C(F)(F)OC(F)(F)CO [1H,1H,8H,8H-Perfluoro-3,6-dioxaoctane-1,8-diol]
Procedure: as §1

Test System	level (log10) ([1]; 6700 nM)	level (log10) ([1]; 20000 nM)	level (log10) ([1]; 60000 nM)	level (log10) ([2]; 6700 nM)	level (log10) ([2]; 20000 nM)	level (log10) ([3]; 6700 nM)	level (log10) ([3]; 20000 nM)	level (log10) ([3]; 60000 nM)	level (log10) ([4]; 6700 nM)	level (log10) ([4]; 20000 nM)	level (log10) ([4]; 60000 nM)	level (log10) (Perfluoropropanoic acid; 6700 nM)	level (log10) (Perfluoropropanoic acid; 20000 nM)	level (log10) (Perfluoropropanoic acid; 60000 nM)	level (log10) ([5]; 6700 nM)	level (log10) ([5]; 20000 nM)	level (log10) ([5]; 60000 nM)
CASM3C:CD87/uPAR	-0.023 ± 0.03	-0.023 ± 0.018	-0.0255 ± 0.00071	-0.002 ± 0.014	0.0175 ± 0.0035	-0.029 ± 0.016	-0.0415 ± 0.005	-0.034 ± 0.014	-0.029 ± 0.035	-0.0275 ± 0.026	-0.0185 ± 0.022	-0.0215 ± 0.019	-0.008 ± 0.038	0.001 ± 0.013	0.0135 ± 0.00071	-0.0085 ± 0.0078	-0.016 ± 0.0085
CASM3C:CD106/VCAM-1	-0.005 ± 0.0014	-0.003 ± 0.0042	0.0175 ± 0.042	-0.018 ± 0.0042	-0.019 ± 0.02	0.0035 ± 0.022	-0.012 ± 0.037	0.026 ± 0.033	-0.021 ± 0.027	-0.019 ± 0.0071	-0.0085 ± 0.005	0.027 ± 0.025	0.0445 ± 0.052	0.0445 ± 0.0078	0.0125 ± 0.0078	-0.005 ± 0.0028	0.0015 ± 0.0035
CASM3C:CD141/Thrombomodulin	0.0045 ± 0.018	0.002 ± 0.0028	0.017 ± 0.0071	0.0015 ± 0.022	-0.0145 ± 0.0078	-0.0315 ± 0.012	0.0015 ± 0.0092	0.0225 ± 0.033	-0.042 ± 0.024	-0.017 ± 0.048	0.003 ± 0.017	-0.05 ± 0.031	0.024 ± 0.0099	0.0245 ± 0.066	-0.0045 ± 0.0021	0.0035 ± 0.005	0.001 ± 0.016
CASM3C:CD142/Tissue Factor	-0.012 ± 0.013	-0.0275 ± 0.022	0.0215 ± 0.053	0.0035 ± 0.028	-0.0085 ± 0.005	0.0075 ± 0.013	-0.0005 ± 0.037	0.0385 ± 0.083	-0.021 ± 0.027	0.001 ± 0.013	0.015 ± 0.017	-0.0995 ± 0.039	-0.0395 ± 0.03	-0.0085 ± 0.039	-0.014 ± 0.0099	-0.013 ± 0.023	0.0165 ± 0.0064
CASM3C:CXCL8/IL-8	0.016 ± 0.042	0.0125 ± 0.011	0.023 ± 0.0071	-0.017 ± 0.011	-0.0145 ± 0.015	-0.003 ± 0.0085	-0.0195 ± 0.028	0.0215 ± 0.032	-0.0135 ± 0.011	-0.0115 ± 0.005	-0.0085 ± 0.013	0.001 ± 0.011	-0.003 ± 0.023	0.0185 ± 0.043	0.0045 ± 0.0064	-0.002 ± 0.0028	0.0125 ± 0.013
CASM3C:CXCL9/MIG	-0.002 ± 0.0057	-0.011 ± 0.013	0.03 ± 0.047	-0.013 ± 0.0085	-0.0115 ± 0.011	0.002 ± 0.0085	-0.009 ± 0.02	0.014 ± 0.062	-0.006 ± 0.0085	0.0035 ± 0.0035	0.015 ± 0.0028	0.0125 ± 0.015	0.0125 ± 0.012	0.0255 ± 0.037	0.0055 ± 0.012	0.0175 ± 0.011	0.0205 ± 0.0035
CASM3C:HLA-DR	-0.022 ± 0.018	-0.0385 ± 0.019	0.0135 ± 0.063	-0.0125 ± 0.011	-0.0155 ± 0.0092	0.001 ± 0.0085	-0.001 ± 0.0099	0.0225 ± 0.043	-0.0185 ± 0.005	-0.014 ± 0.018	-0.011 ± 0.028	0.015 ± 0.023	-0.013 ± 0.011	0.0365 ± 0.0021	0.0315 ± 0.025	0.0075 ± 0.011	0.0045 ± 0.029
CASM3C:IL-6	-0.0065 ± 0.047	-0.014 ± 0.027	0.0285 ± 0.00071	-0.033 ± 0.024	0.003 ± 0.055	-0.029 ± 0.0071	-0.017 ± 0.0028	0.0175 ± 0.043	-0.019 ± 0.021	-0.025 ± 0.0028	0.0005 ± 0.028	-0.0205 ± 0.056	-0.025 ± 0.0071	-0.0045 ± 0.035	-0.017 ± 0.011	-0.009 ± 0.0014	0.0215 ± 0.056
CASM3C:LDLR	0.015 ± 0.034	-0.0115 ± 0.0035	0.0155 ± 0.015	0.008	0.0495 ± 0.019	-0.0165 ± 0.021	-0.02 ± 0.0042	0.007 ± 0.024	0.016 ± 0.0099	0.0095 ± 0.005	0.033 ± 0.028	-0.0845 ± 0.07	-0.036 ± 0.054	-0.022 ± 0.073	0.005 ± 0.0014	0.0055 ± 0.019	0.0235 ± 0.039
CASM3C:M-CSF	0.0205 ± 0.016	-0.0025 ± 0.0035	0.0385 ± 0.011	-0.0375 ± 0.011	-0.0235 ± 0.023	-0.0115 ± 0.021	-0.029 ± 0.0014	-0.0025 ± 0.084	-0.0155 ± 0.016	-0.031 ± 0.021	0.013 ± 0.054	-0.0265 ± 0.16	0.0055 ± 0.0092	0.034 ± 0.065	-0.014 ± 0.0014	-0.0105 ± 0.005	0.0115 ± 0.0092
CASM3C:PAI-I	0.0025 ± 0.00071	0.0005 ± 0.0078	0.0155 ± 0.0064	-0.0015 ± 0.00071	0.004 ± 0.0028	-0.0035 ± 0.0021	-0.001 ± 0.011	0.0065 ± 0.011	-0.0195 ± 0.0078	-0.006 ± 0.0099	-0.0095 ± 0.016	-0.0035 ± 0.0021	-0.003 ± 0.0014	0.0005 ± 0.0064	0.006 ± 0.0028	0 ± 0.0028	0.011 ± 0.017
CASM3C:Proliferation	0.0055 ± 0.0035	-0.0135 ± 0.025	-0.0075 ± 0.0092	-0.018 ± 0.027	0.0305 ± 0.013	-0.0215 ± 0.011	-0.001 ± 0.014	0.0145 ± 0.032	-0.001 ± 0.0028	-0.038 ± 0.0042	0.0025 ± 0.0035	0.0065 ± 0.0035	-0.0355 ± 0.063	0.017 ± 0.033	-0.0225 ± 0.0021	-0.0045 ± 0.028	0.0065 ± 0.026
CASM3C:SRB	0.0035 ± 0.0021	-0.006 ± 0.0028	0.0085 ± 0.005	0.002 ± 0.0042	-0.003 ± 0.0014	-0.0005 ± 0.015	-0.003 ± 0.0042	0.0015 ± 0.00071	0.003 ± 0.0042	-0.003 ± 0.013	-0.0015 ± 0.0035	0.0035 ± 0.00071	-0.0015 ± 0.00071	-0.0015 ± 0.005	-0.008 ± 0.0014	-0.003 ± 0.0042	-0.009 ± 0.0057
CASM3C:Serum Amyloid A	-0.012 ± 0.0028	-0.0235 ± 0.011	0.0265 ± 0.06	-0.0145 ± 0.0035	-0.011 ± 0.0085	-0.004 ± 0.011	0.0215 ± 0.0035	-0.0235 ± 0.0092	0.009	-0.0065 ± 0.013	-0.0005 ± 0.022	-0.05 ± 0.033	-0.0755 ± 0.026	-0.0465 ± 0.054	-0.0235 ± 0.044	-0.0195 ± 0.043	-0.036 ± 0.025
HDF3CGF:CCL2/MCP-1	0 ± 0.016	0.005 ± 0.0071	0.0135 ± 0.016	-0.022 ± 0.0042	-0.005 ± 0.011	-0.0005 ± 0.0078	-0.001 ± 0.013	0.0005 ± 0.0078	-0.039 ± 0.021	-0.0375 ± 0.06	-0.014 ± 0.014	-0.022 ± 0.047	-0.024 ± 0.04	0.017 ± 0.051	0.0015 ± 0.0092	0.0025 ± 0.012	0.026 ± 0.047
